In publication PMC3463587, “A Series of Beta-Carboline Derivatives Inhibit the Kinase Activity of PLKs” (PLoS ONE, 2012):

Key:
[1] = test system: cdc5-2 mutant yeast cells; test: Yeast growth inhibition (MIC), cdc5-2 mutant; details: 10 µg/ml, 25°C
Method: (§2) The Cdc5 kinase is the functional homologue of PLK1 in budding yeast and the incubation of cdc5-2 mutants at 37°C impairs the kinase activity and stops cell growth. […] We also compared the sensitivity of wild-type and cdc5-2 mutant cells to the selected compounds at different concentrations. […] The temperature sensitive cdc5-2 mutants and wild-type strains were used. […] After incubation at 25°C for 24 hr, the growth of the yeast cells was determined by measuring OD600.

wild-type yeast cells = test: Yeast growth inhibition (MIC), wild-type; details: 10 µg/ml, 25°C
Method: as §2

HeLa cells = test: MTT cell proliferation assay, HeLa; format: cell-based; details: Homo sapiens, 48 hr
Excerpt: (§1) BI2536 was purchased from Selleck (Selleck, USA).

[2] = test system: four cancer cell lines (HepG2, MG63, HeLa and PC3); test: Growth inhibition of four cancer cell lines; format: cell-based, Human
Excerpt: In order to find more efficient antitumor small molecules targeting PLK1, we synthesized additional 18 beta-carboline compounds and the structures of these compounds are shown in Figure 1. The growth inhibition of four cancer cell lines (HepG2, MG63, HeLa and PC3) by these compounds was examined. […] We selected DH281, DH285 and DH287 for further studies.

HepG2 cells = test: MTT cell proliferation assay, HepG2; format: cell-based; details: Homo sapiens, 48 hr
Excerpt: as §1

MG63 cells = test: MTT cell proliferation assay, MG63; format: cell-based; details: Homo sapiens, MG-63, 48 hr
Excerpt: as §1

PC3 cells = test: MTT cell proliferation assay, PC3; format: cell-based; details: Homo sapiens, PC-3, 48 hr
Excerpt: as §1

Row | SMILES | IC50 (HeLa cells) | IC50 (HepG2 cells) | IC50 (PC3 cells) | growth inhibition of cdc5-2 mutant cells [1] | growth of wild-type cells (wild-type yeast cells) | antitumor activity (growth inhibition) [2] | IC50 (MG63 cells)
1 | CC[C@@H]1C(=O)N(C)c2cnc(Nc3ccc(C(=O)NC4CCN(C)CC4)cc3OC)nc2N1C1CCCC1 [BI2536, reference compound] |  |  |  | complete growth inhibition | unaffected |  | 
2 | COc1ccc2c3ccnc(C)c3n(Cc3cccc(Cl)c3)c2c1 [DH145] | 40.5 ± 0.14 µM | 68.45 ± 0.02 µM | 75.39 ± 0.16 µM |  |  | did not show obvious antitumor activity | 73.12 ± 0.31 µM
3 | Cc1nccc2c3ccc(OCc4cccc(Cl)c4)cc3n(CCCc3ccccc3)c12 [DH278] | 63.14 ± 0.47 µM | > 100 µM | 80.21 ± 0.31 µM |  |  | did not show obvious antitumor activity | > 150 µM
4 | Cc1nccc2c3ccc(OCc4ccc(F)cc4)cc3n(CCCc3ccccc3)c12 [DH279] | > 100 µM | > 100 µM | > 100 µM |  |  | did not show obvious antitumor activity | > 100 µM
5 | CCCCn1c2ccccc2c2cc(C(=O)NCCO)nc(C)c21 [DH286] | 65.81 ± 0.23 µM | > 150 µM | 72.96 ± 0.53 µM |  |  | did not show obvious antitumor activity | 46.09 ± 0.37 µM
6 | Cc1nccc2c3ccc(OCc4ccccc4)cc3n(Cc3ccccc3)c12 [DH288] | > 100 µM | > 100 µM | > 100 µM |  |  | did not show obvious antitumor activity | > 100 µM

More lines, main results first:

Row | IC50 (HeLa cells) | IC50 (HepG2 cells) | IC50 (PC3 cells) | SMILES | growth inhibition of cdc5-2 mutant cells [1] | growth of wild-type cells (wild-type yeast cells) | antitumor activity (growth inhibition) [2] | IC50 (MG63 cells)
7 | 3.86 ± 0.44 µM | 4.01 ± 0.1 µM | 8.38 ± 0.24 µM | Fc1ccc(Cn2c3ccccc3c3cc[n+](Cc4ccccc4)c(Cc4ccccc4)c32)cc1 [DH271] |  |  |  | 5.97 ± 0.06 µM
8 | 8.16 ± 0.37 µM | 12.47 ± 0.12 µM | 22.1 ± 0.43 µM | c1ccc(CCCn2c3ccccc3c3cc[n+](Cc4ccccc4)cc32)cc1 [DH272] |  |  |  | 12.8 ± 0.28 µM
9 | 3.77 ± 0.25 µM | 5.08 ± 0.38 µM | 3.86 ± 0.12 µM | Clc1cccc(C[n+]2ccc3c4ccccc4n(CCCc4ccccc4)c3c2)c1 [DH273] |  |  |  | 4.21 ± 0.45 µM
10 | 5.73 ± 0.18 µM | 7.37 ± 0.26 µM | 6.07 ± 0.27 µM | Fc1ccc(C[n+]2ccc3c4ccccc4n(CCCc4ccccc4)c3c2)cc1 [DH274] |  |  |  | 6.38 ± 0.19 µM
11 | 5.83 ± 0.03 µM | 10.4 ± 0.37 µM | 6.36 ± 0.11 µM | Fc1ccc(C[n+]2ccc3c4ccccc4n(Cc4cccc(Cl)c4)c3c2)cc1 [DH275] |  |  |  | 7.32 ± 0.22 µM
12 | 6.04 ± 0.17 µM | 11.2 ± 0.22 µM | 6.65 ± 0.4 µM | Clc1cccc(Cn2c3ccccc3c3cc[n+](Cc4cccc(Cl)c4)cc32)c1 [DH276] |  |  |  | 7.3 ± 0.06 µM
13 | 8.48 ± 0.23 µM | 18.8 ± 0.29 µM | 10.8 ± 0.21 µM | Clc1cccc(Cn2c3ccccc3c3cc[n+](Cc4ccccc4)cc32)c1 [DH277] |  |  |  | 20.4 ± 0.16 µM
14 | 0.99 ± 0.14 µM | 2.59 ± 0.16 µM | 2.34 ± 0.06 µM | Cc1c2c(cc[n+]1Cc1ccccc1)c1ccc(OCc3cccc(Cl)c3)cc1n2CCCc1ccccc1 [DH280] |  |  | very strong growth inhibition | 1.86 ± 0.33 µM
